This is an account of results in patent US20190119200A1, “TERTIARY AMIDES AND METHOD OF USE” (AbbVie Inc., priority 2016, published 2019).

Holding throughout (type): cell-based
Assay [1] deals with T1, LPAR1 (Homo sapiens, UniProt Q92633).
T1 construct: host or cells: U2OS
The experiment in a line: IP-One HTRF Assay. As to conditions: U2OS cells stably expressing LPAR1, LPA stimulation, IP-One Tb HTRF kit; for Emax: read-out: Maximum Inhibition. Put shortly:
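U2OS cells stably expressing LPAR1 were preincubated with compound (11-point 3-fold series from 2 mM DMSO stock) for 20 min at 37 °C, then stimulated with LPA for 2 h at 37 °C. IP1 accumulation was read by IP-One HTRF (665/615 nm ratio). IC50 came from four-parameter logistic Hill fits.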

In assay [2] the target is T1, LPAR1. The experiment in a line: LPAR1 Arrestin Assay (arrestin reporter assay). As to conditions: U2OS cells stably expressing the LPAR1 receptor, 200 nM 18:1 LPA (EC80); for Emax: read-out: Maximum Inhibition. In short, it runs like this: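 U2OS cells stably expressing LPAR1 pretreated 1 h at 37° C with compound, then stimulated 5 h with 200 nM 18:1 LPA (EC80), 0.1% DMSO, 0.02% BSA. β-lactamase reporter read by CCF4-AM FRET (460/530 nm emission) after 2 h dye load; 12-point curves, duplicate, n≥3.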
Background: A reporter such as luciferase makes a cellular process visible.

Assay [3] concerns the target T1, LPAR1. The experiment in a line: LPAR1 FLIPR Assay. As to conditions: U2OS cells stably expressing LPAR1, LPA (EC80), Calcium 6 FLIPR dye; for Emax: read-out: Maximum Inhibition. Put shortly:
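U2OS cells stably expressing LPAR1 were loaded with Calcium 6 dye for 2 h at 37° C, preincubated 3 min with compound (11-point 3-fold series), then stimulated with LPA at EC80. Fluorescence at 515-575 nm was recorded by FLIPR; IC50 came from four-parameter logistic fits of ratio data.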

The term IC50 denotes the concentration that inhibits the measured activity by half.

T1 sequence (Q92633 whole entry): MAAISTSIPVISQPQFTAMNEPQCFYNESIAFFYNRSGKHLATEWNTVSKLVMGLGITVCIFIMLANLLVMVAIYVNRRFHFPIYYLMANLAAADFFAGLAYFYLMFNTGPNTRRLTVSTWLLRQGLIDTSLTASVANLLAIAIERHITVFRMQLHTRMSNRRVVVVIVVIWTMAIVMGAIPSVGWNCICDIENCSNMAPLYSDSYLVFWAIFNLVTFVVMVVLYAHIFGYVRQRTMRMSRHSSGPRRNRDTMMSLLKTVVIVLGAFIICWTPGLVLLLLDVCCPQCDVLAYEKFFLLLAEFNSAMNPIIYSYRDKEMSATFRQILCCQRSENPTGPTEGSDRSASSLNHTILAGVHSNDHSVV

As for `COc1cc(C(=O)N(CCCc2ccccc2)CCOCC(=O)NS(C)(=O)=O)cc(OC)c1C` [Example 157, N-(2-{2-[(methanesulfonyl)amino]-2-oxoethoxy}ethyl)-3,5-dimethoxy-4-methyl-N-(3-phenylpropyl)benzamide], the IC50 stood at 920 nM at LPAR1 [1], 108 nM against LPAR1 [2] and 16 nM at LPAR1 [3]. Moreover, the Emax was found to be 75% on LPAR1 [1], 128% at LPAR1 [2] and 92% at LPAR1 [3].

In the case of `COc1cc(C(=O)N(CCCCC(=O)O)CCCc2ccco2)cc(OC)c1C` [Example 173, 5-{(3,5-dimethoxy-4-methylbenzoyl)[3-(furan-2-yl)propyl]amino}pentanoic Acid], the IC50 against LPAR1 [1] stood at 523 nM; on LPAR1 [2] it was 295 nM; at LPAR1 [3], 29 nM. For the same molecule, the Emax came to 75% on LPAR1 [1], 122% on LPAR1 [2] and 74% on LPAR1 [3].

With `COc1cc(C(=O)N(CCCCC(=O)O)CCCc2ccc(Cl)o2)cc(OC)c1C` [Example 185, 5-{[3-(5-chlorofuran-2-yl)propyl](3,5-dimethoxy-4-methylbenzoyl)amino}pentanoic Acid], the IC50 against LPAR1 [1] came to 325 nM; on LPAR1 [2] it was 288 nM; on LPAR1 [3] it was 13 nM. The Emax at LPAR1 [1] came out at 73%; on LPAR1 [2], 122%; on LPAR1 [3], 91%.
